The source of these data is US5223507A, “Method of using opioid compounds as delta opioid selective agonist analgesics” (G. D. Searle & Co., priority 1992, dated 1993).

The test system of one experiment is mice. As to the kind of experiment: Phenylbenzoquinone (PBQ) Writhing Assay. Particulars: 30 min before PBQ; for ED50: Mus musculus, 0.5 h. It counts as in vivo, mouse (Charles River male albino mice). The text has this:
The Writhing Assay is one of the most widely-used experimental procedures for measuring the analgesic activity of different narcotic and nonnarcotic analgesic agents, and involves the continuous, chemically-induced pain of visceral origin to an animal, such as a mouse or rat. [Gyires et al., Arch. int. Pharmacodyn, 267, 131-140 (1984); C. Vander Wende et al., Fed. Proc., 15, 494 (1956); Koster et al., Fed. Proc., 18, 412 (1959); and Witken et al., J. PharmacoI. exp. Tger., 133, 400-408 (1961).] Chemicals which may be used to induce this pain include phenylbenzoquinone (PBQ) and acetic acid. As a result of the chemical irritation to the animal, a characteristic stretching and writhing of the animal (dorsiflexion of the animal's back, extension of its hindlimbs and the strong contraction of its abdominal musculature) will generally occur. […] Drugs which reduce the number of writhes of the animal appear to restore the normal nociceptive threshold of the animal.
Charles River male albino mice, weighing 20 to 30 grams were used in this assay.
Thirty minutes after subcutaneous or intragastric administration to ten mice of either 10 mg or 30 mg per kilogram of body weight of a compound of the present invention ("test compound"), […] of body weight of a 0.025% w/v solution of PBQ was injected intraperitoneally into each mouse. Ten mice which were given saline in place of a test compound of the invention were used as a control group.
Five minutes later, each mouse was individually placed into a glass beaker for observation, and the number of writhes occurring during the following ten-minute period was counted.
A test compound was considered to be "active" in this assay (to have produced analgesia in a mouse) if, after the administration of the compound to the mouse, the number of writhes elicited by a mouse injected with PBQ was equal to, or less than, one-half the median number of writhes recorded for the saline-treated control group of mice that day, as described by Taber in "Predictive Value of Analgesic Assays in Mice and Rats," Advances in Biochemical Psychopharmacology, 8, 191 (1974).
The standard initial screening doses of a test compound employed in this assay were 10 and/or 30 […] for both routes of administration.
Background: In writhing tests, fewer writhes than in controls are read as antinociception.

For the next experiment, the target named is μ opioid receptors (Rattus norvegicus, UniProt P33535). The experiment in a line: Opiate Binding Assay, displacement of 3[H]-DAMGO (μ receptor).
For the next experiment, the target named is δ opioid receptors (Rattus norvegicus, UniProt P33533). The experiment in a line: Opiate Binding Assay, displacement of 3[H]-DSLET (δ receptor). As to conditions: for Mean IC50 μ/δ Ratio: ratio of mean IC50 values for μ and δ opioid receptors.
Setting [1] is: po, intragastric, read-out: PBQ WRITHING ASSAY ED50 (mpk) I.G.
Where [2] appears, read: sc, subcutaneous, read-out: PBQ WRITHING ASSAY ED50 (mpk) S.C.

Structures can show the parent of a compound that is named as a salt. Where two headings read alike, the source gives them in different places.

μ opioid receptors, sequence (P33535 whole entry): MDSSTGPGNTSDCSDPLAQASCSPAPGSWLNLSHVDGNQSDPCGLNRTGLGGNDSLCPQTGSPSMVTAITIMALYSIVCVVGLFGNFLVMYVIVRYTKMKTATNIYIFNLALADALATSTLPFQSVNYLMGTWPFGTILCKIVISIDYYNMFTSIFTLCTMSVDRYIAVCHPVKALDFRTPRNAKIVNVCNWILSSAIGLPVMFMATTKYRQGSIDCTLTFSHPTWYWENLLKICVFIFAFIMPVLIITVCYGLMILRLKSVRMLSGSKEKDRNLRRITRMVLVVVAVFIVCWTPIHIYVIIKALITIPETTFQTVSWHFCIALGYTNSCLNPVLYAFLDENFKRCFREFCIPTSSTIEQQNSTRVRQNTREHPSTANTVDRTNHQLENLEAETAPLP
δ opioid receptors, sequence (P33533 whole entry): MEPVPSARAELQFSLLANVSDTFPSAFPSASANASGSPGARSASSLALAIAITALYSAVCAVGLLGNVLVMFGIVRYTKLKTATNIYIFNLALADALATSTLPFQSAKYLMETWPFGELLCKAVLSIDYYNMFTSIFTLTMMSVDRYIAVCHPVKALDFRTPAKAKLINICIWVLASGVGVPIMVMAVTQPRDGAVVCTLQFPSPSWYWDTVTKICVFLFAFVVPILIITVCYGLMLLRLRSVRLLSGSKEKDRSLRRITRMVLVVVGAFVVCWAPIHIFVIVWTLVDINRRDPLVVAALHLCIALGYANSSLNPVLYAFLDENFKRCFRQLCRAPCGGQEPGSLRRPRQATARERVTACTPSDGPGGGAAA

In general, ED50 refers to the midpoint of the dose-response relation. In general, IC50 refers to the point on the concentration scale where inhibition reaches its midpoint. For the compound `CN1CC[C@]23c4c5ccc(O)c4O[C@H]2c2oc4ccccc4c2C[C@@]3(O)[C@H]1C5` [II, 6,7,8,14bβ-Tetrahydro-7-methyl-4,8(R,α)-methano-4bS^* -5H-bisbenzofuro[3,2-e:2',3'-g]isoquinoline-1, 8aβ(9H)-diol, monohydrochloride], the ED50 stood at 2.4 mg/kg in the experiment on mice (setting [1]) and 0.2 mg/kg with mice (setting [2]). For the same compound, the IC50 amounted to 93 nM at μ opioid receptors and 5.4 nM at δ opioid receptors. Besides, at δ opioid receptors, the “Mean IC50 μ/δ Ratio” value worked out at 17.

In the case of `C=CCN1CC[C@]23c4c5ccc(O)c4O[C@H]2c2oc4ccccc4c2C[C@@]3(O)[C@H]1C5` [IX, 6,7,8,14β-Tetrahydro-7-(2-propenyl)-4,8(R,α)-methano-4bS^* -5H-bisbenzofuro[3,2-e:2',3'-g] isoquinoline-1,8aβ(9H)-diol, monohydrochloride], the ED50 in the experiment on mice (setting [1]) stood at 3.9 mg/kg; in the experiment with mice (setting [2]) it was 2.8 mg/kg. For the same compound, the IC50 came to 236 nM at μ opioid receptors and 0.21 nM on δ opioid receptors. In addition, the “Mean IC50 μ/δ Ratio” value on δ opioid receptors stood at 1100.

On to `CN1CC[C@]23c4c5ccc(O)c4O[C@H]2c2oc4ccccc4c2C[C@H]3[C@H]1C5` [XI, 6,7,8,8a,9,14bβ-Hexahydro-7-methyl-4,8(R,α)-methano-4bs^* -5H-bisbenzofuro[3,2-e:2',3'-g] isoquinolin-1-ol, monohydrochloride], for which the ED50 with mice (setting [2]) came out at 2 mg/kg. Further, the “PBQ WRITHING ASSAY ED50 (mpk) I.G.” value in the experiment on mice (intragastric) is “inactive”. Besides, on μ opioid receptors, the IC50 is 24 nM. Further, at δ opioid receptors, the IC50 was 3.5 nM and the “Mean IC50 μ/δ Ratio” value is 6.9.
